Key:
Human PPARα = biological target: T1, Human PPARα (Homo sapiens, UniProt Q07869); experiment: Activation of human PPARα, GAL4 chimeric receptor luciferase reporter assay in transiently transfected 293-T cells; format: cell-based; conditions: for Photon number (×10^4) / Increased multiple vs control: compounds 10 μM, PPARα; for Photon number (×10^4): luciferase 24 h after administration; for Increased multiple vs control: vs DMSO control
T1 construct: expressed in transfected cells; host or cells: 293-T cells, transient transfection
T1 sequence (Q07869 239-466 limits assumed): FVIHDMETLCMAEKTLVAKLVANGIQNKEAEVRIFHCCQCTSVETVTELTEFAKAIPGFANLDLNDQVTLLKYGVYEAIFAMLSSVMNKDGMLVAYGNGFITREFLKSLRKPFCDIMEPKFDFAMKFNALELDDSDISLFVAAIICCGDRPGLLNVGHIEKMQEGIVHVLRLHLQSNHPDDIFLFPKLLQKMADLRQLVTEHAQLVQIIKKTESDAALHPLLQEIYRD
Experimental: (§1) The compounds were screened with respect to their functional effect of instantaneous transfection in 293-T cells, so that their capabilities of activating PPAR subtypes were determined. A chimeric receptor system as established in advance was used to compare the influence of receptor subtypes on the transcription activity of same target gene. Human PPARα and PPARγ ligand-binding domains were fused respectively with yeast transcription factor GAL4 DNA-binding domains, and then linked to expression vector pM of mammal, to thereby construct two plasmids pM-hPPARα/GAL4 and pM-PPARγ/GAL4. GAL4 DNA-binding area was linked to pB4-tk-luc, to thereby construct pB4-RES-tk-luc (a firefly luciferase reporter gene comprising GAL4 DNA-binding site). pRL-CMV-Rluc was used as an internal control to normalize transfection efficiency and endogenous influence.
293-T cells were incubated in a 48-well plate at a cell density of 2-4×10^4/well, using a phenol red-free and antibiotic-free 1640 medium containing 10% defatted fetal calf serum (FCS). After culturing for 48 h, the medium was replaced with a phenol red-free and antibiotic-free 1640 medium containing 5% defatted FCS, and then three plasmids pM-hPPAR/GAL4, pB4-RES-tk-luc and pRL-CMV-Rluc pertaining to two subtypes were respectively co-transfected into the 293-T cells. The strength of luciferase was measured at the time of 24 h after administration, with 0.2% DMSO as a blank control.

Human PPARγ = biological target: T2, Human PPARγ (Homo sapiens, UniProt P37231); experiment: Activation of human PPARγ, GAL4 chimeric receptor luciferase reporter assay in transiently transfected 293-T cells; format: cell-based
T2 construct: expressed in transfected cells; host or cells: 293-T cells, transient transfection
T2 sequence (P37231 238-503 limits assumed): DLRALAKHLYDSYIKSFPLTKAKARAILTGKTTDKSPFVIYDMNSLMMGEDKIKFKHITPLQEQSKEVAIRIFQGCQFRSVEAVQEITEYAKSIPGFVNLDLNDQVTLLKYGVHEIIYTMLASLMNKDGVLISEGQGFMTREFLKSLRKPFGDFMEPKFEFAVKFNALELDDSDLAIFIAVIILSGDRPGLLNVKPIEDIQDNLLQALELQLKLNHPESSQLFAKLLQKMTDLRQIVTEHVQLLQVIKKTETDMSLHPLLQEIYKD
From the text: as §1, with “A” for “The compounds were screened with respect to their functional effect of instantaneous transfection in 293-T cells, so that their capabilities of activating PPAR subtypes were determined. A”
The strength of luciferase was measured at the time of 24 h after administration, with 0.2% DMSO as a blank control.

melting point [°C] | Photon number (×10^4) (Human PPARα) | Increased multiple vs control (Human PPARα) | Structure (SMILES) | also measured
171 to 173 |  |  | Cc1oc(-c2ccccc2)nc1CCOc1ccc(C[C@@H](C(=O)O)N2CCN(S(=O)(=O)c3ccccc3[N+](=O)[O-])CC2)cc1 [Example 6, (2S)-2-[4-(2-nitro-benzenesulfonyl)-piperazin-1-yl]-3-{4-[2-(5-methyl-2-phenyl-1,3-oxazol-4-yl)-ethoxy]-phenyl}-propionic acid] | EC50 (Human PPARα; activation of PPARα): 1050 nM; EC50 (Human PPARγ; activation of PPARγ): 3200 nM
170 to 172 |  |  | Cc1oc(-c2ccccc2)nc1CCOc1ccc(C[C@@H](C(=O)O)N2CCN(S(=O)(=O)c3ccccc3F)CC2)cc1 [Example 3, (2S)-2-[4-(2-fluoro-benzenesulfonyl)-piperazin-1-yl]-3-{4-[2-(5-methyl-2-phenyl-1,3-oxazol-4-yl)-ethoxy]-phenyl}-propionic acid] | 

Continued, compound first:

Structure (SMILES) | melting point [°C] | Photon number (×10^4) (Human PPARα) | Increased multiple vs control (Human PPARα) | also measured
Cc1oc(-c2ccccc2)nc1CCOc1ccc(C[C@@H](C(=O)O)N2CCN(c3cccc(Cl)c3)CC2)cc1 [Example 7, (2S)-2-[4-(m-chloro-phenyl)-piperazin-1-yl]-3-{4-[2-(5-methyl-2-phenyl-1,3-oxazol-4-yl)-ethoxy]-phenyl}-propionic acid] | 138 to 139 |  |  | 
Cc1cccc(N2CCN([C@@H](Cc3ccc(OCCc4nc(-c5ccccc5)oc4C)cc3)C(=O)O)CC2)c1 [Example 1, (2S)-3-{4-[2-(5-methyl-2-phenyl-1,3-oxazol-4-yl)-ethoxy]-phenyl}-2-(4-m-tolyl-piperazin-1-yl)-propionic acid] |  | 11.3 ×10^4 | 5.3 | 
Cc1oc(-c2ccccc2)nc1CCOc1ccc(C[C@@H](C(=O)O)N2CCN(c3ccccc3)CC2)cc1Br [Example 10, (2S)-3-{3-bromo-4-[2-(5-methyl-2-phenyl-1,3-oxazol-4-yl)-ethoxy]-phenyl}-2-(4-phenylpiperazin-1-yl)-propanoic acid] | 220 to 222 |  |  | 
Cc1oc(-c2ccccc2)nc1CCOc1ccc(C[C@@H](C(=O)O)N2CCN(S(=O)(=O)c3ccc(F)cc3)CC2)cc1 [Example 4, (2S)-2-[4-(4-fluoro-benzenesulfonyl)-piperazin-1-yl]-3-{4-[2-(5-methyl-2-phenyl-1,3-oxazol-4-yl)-ethoxy]-phenyl}-propionic acid] | 198 to 200 | 6.8 ×10^4 | 3.2 | Photon number (×10^4) (Human PPARγ; compounds 10 μM, PPARγ, luciferase 24 h after administration): 2.8 ×10^4; Increased multiple vs control (Human PPARγ; compounds 10 μM, PPARγ, vs control): 2.0
Cc1oc(-c2ccccc2)nc1CCOc1ccc(C[C@@H](C(=O)O)N2CCN(c3ccccc3)CC2)cc1 [Example 8, (2S)-3-{4-[2-(5-methyl-2-phenyl-1,3-oxazol-4-yl)-ethoxy]-phenyl}-2-(4-phenyl-piperazin-1-yl)-propionic acid] | 218 to 220 | 13.2 ×10^4 | 6.3 | 

— patent US7544687B2, “Substituted α-piperazinyl phenylpropionic acid derivatives as hPPAR α and/or hPPAR γ agonists” (Beijing Molecule Science and Technology Co., Ltd, priority 2004, dated 2009)
